Measured values as given in PubChem BioAssay (NCI).
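48-hour exposure; five concentrations; linearly interpolated endpoints. The concentration for 50% growth inhibition is given as GI50. TGI marks complete inhibition of growth.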

What was measured:
Experiment in all cases: growth of human tumour cells (NCI), 48 h
786-0 renal = system: 786-0 renal
A498 renal = system: A498 renal
A549 NSCLC = system: A549 NSCLC
ACHN renal = system: ACHN renal
BT-549 breast = system: BT-549 breast
CAKI-1 renal = system: CAKI-1 renal
CCRF-CEM leukemia = system: CCRF-CEM leukemia
COLO 205 colon = system: COLO 205 colon
DU-145 prostate = system: DU-145 prostate
HCC-2998 colon = system: HCC-2998 colon
HCT-116 colon = system: HCT-116 colon
HCT-15 colon = system: HCT-15 colon
HL-60(TB) leukemia = system: HL-60(TB) leukemia
HOP-62 NSCLC = system: HOP-62 NSCLC
HOP-92 NSCLC = system: HOP-92 NSCLC
HS 578T breast = system: HS 578T breast
HT29 colon = system: HT29 colon
IGROV1 ovarian = system: IGROV1 ovarian
K-562 leukemia = system: K-562 leukemia
KM12 colon = system: KM12 colon
LOX IMVI melanoma = system: LOX IMVI melanoma
M14 melanoma = system: M14 melanoma
MALME-3M melanoma = system: MALME-3M melanoma
MCF7 breast = system: MCF7 breast
MDA-MB-435 = system: MDA-MB-435
MOLT-4 leukemia = system: MOLT-4 leukemia
NCI-H226 lung = system: NCI-H226 lung
NCI-H23 lung = system: NCI-H23 lung
NCI-H460 lung = system: NCI-H460 lung
NCI-H522 lung = system: NCI-H522 lung
NCI/ADR-RES ovarian = system: NCI/ADR-RES ovarian
OVCAR-3 ovarian = system: OVCAR-3 ovarian
OVCAR-4 ovarian = system: OVCAR-4 ovarian
OVCAR-5 ovarian = system: OVCAR-5 ovarian
OVCAR-8 ovarian = system: OVCAR-8 ovarian
PC-3 prostate = system: PC-3 prostate
RPMI-8226 leukemia = system: RPMI-8226 leukemia
RXF 393 renal = system: RXF 393 renal
SF-268 CNS = system: SF-268 CNS
SF-295 CNS = system: SF-295 CNS
SF-539 CNS = system: SF-539 CNS
SK-MEL-2 melanoma = system: SK-MEL-2 melanoma
SK-MEL-28 melanoma = system: SK-MEL-28 melanoma
SK-MEL-5 melanoma = system: SK-MEL-5 melanoma
SK-OV-3 ovarian = system: SK-OV-3 ovarian
SN12C renal = system: SN12C renal
SNB-19 CNS = system: SNB-19 CNS
SNB-75 CNS = system: SNB-75 CNS
SR leukemia = system: SR leukemia
SW-620 colon = system: SW-620 colon
T-47D breast = system: T-47D breast
TK-10 renal = system: TK-10 renal
U251 CNS = system: U251 CNS
UACC-257 melanoma = system: UACC-257 melanoma
UACC-62 melanoma = system: UACC-62 melanoma
UO-31 renal = system: UO-31 renal

For `Cc1ccc2c(n1)C(=O)C(Cl)=C(Nc1cccc(C(F)(F)F)c1)C2=O`, the GI50 (786-0 renal) was 1800 nM, the TGI (786-0 renal) was 3.55 µM and the GI50 (A498 renal) was 13.8 µM. The TGI (A498 renal) was 27.9 µM, the GI50 (A549 NSCLC) was 20.1 µM and the TGI (A549 NSCLC) was 50 µM. For the same molecule, the GI50 (ACHN renal) was 1780 nM, the TGI (ACHN renal) was 3.31 µM and the GI50 (BT-549 breast) was 2160 nM. It also gave a TGI (BT-549 breast) of 5.47 µM, a GI50 (CAKI-1 renal) of 1580 nM and a TGI (CAKI-1 renal) of 3.01 µM. It also gave a GI50 (CCRF-CEM leukemia) of 1460 nM, a TGI (CCRF-CEM leukemia) of 4.71 µM and a GI50 (COLO 205 colon) of 1820 nM. It also gave a TGI (COLO 205 colon) of 3.78 µM, a GI50 (DU-145 prostate) of 1800 nM and a TGI (DU-145 prostate) of 3.31 µM. For the same molecule, the GI50 (HCC-2998 colon) was 2600 nM, the TGI (HCC-2998 colon) was 6.48 µM and the GI50 (HCT-116 colon) was 1510 nM. It also gave a TGI (HCT-116 colon) of 3.22 µM, a GI50 (HCT-15 colon) of 1660 nM and a TGI (HCT-15 colon) of 3.55 µM. For the same molecule, the GI50 (HL-60(TB) leukemia) was 1500 nM, the TGI (HL-60(TB) leukemia) was 3.68 µM and the GI50 (HOP-62 NSCLC) was 17 µM. The TGI (HOP-62 NSCLC) was 31.8 µM, the GI50 (HOP-92 NSCLC) was 1910 nM and the TGI (HOP-92 NSCLC) was 3.89 µM. The GI50 (HS 578T breast) was 15.1 µM, the TGI (HS 578T breast) was 85.6 µM and the GI50 (HT29 colon) was 2600 nM. The TGI (HT29 colon) was 6.63 µM, the GI50 (IGROV1 ovarian) was 1870 nM and the TGI (IGROV1 ovarian) was 3.6 µM. It also gave a GI50 (K-562 leukemia) of 310 nM, a TGI (K-562 leukemia) of 1300 nM and a GI50 (KM12 colon) of 15.9 µM. For the same molecule, the TGI (KM12 colon) was 32.3 µM, the GI50 (LOX IMVI melanoma) was 1510 nM and the TGI (LOX IMVI melanoma) was 3.33 µM. It also gave a GI50 (M14 melanoma) of 1920 nM, a TGI (M14 melanoma) of 4.39 µM and a GI50 (MALME-3M melanoma) of 1790 nM. For the same molecule, the TGI (MALME-3M melanoma) was 3.61 µM, the GI50 (MCF7 breast) was 1850 nM and the TGI (MCF7 breast) was 4.66 µM. The GI50 (MDA-MB-435) was 1950 nM, the TGI (MDA-MB-435) was 3.91 µM and the GI50 (MOLT-4 leukemia) was 1690 nM. For the same molecule, the TGI (MOLT-4 leukemia) was 5.38 µM, the GI50 (NCI-H226 lung) was 2570 nM and the TGI (NCI-H226 lung) was 11.5 µM. It also gave a GI50 (NCI-H23 lung) of 1820 nM, a TGI (NCI-H23 lung) of 4.67 µM and a GI50 (NCI-H460 lung) of 18.4 µM. The TGI (NCI-H460 lung) was 40.8 µM, the GI50 (NCI-H522 lung) was 2030 nM and the TGI (NCI-H522 lung) was 5.12 µM. The GI50 (NCI/ADR-RES ovarian) was 2650 nM, the TGI (NCI/ADR-RES ovarian) was 7.88 µM and the GI50 (OVCAR-3 ovarian) was 1680 nM. For the same molecule, the TGI (OVCAR-3 ovarian) was 3.11 µM, the GI50 (OVCAR-4 ovarian) was 1560 nM and the TGI (OVCAR-4 ovarian) was 3.27 µM. It also gave a GI50 (OVCAR-5 ovarian) of 6.03 µM, a TGI (OVCAR-5 ovarian) of 22.1 µM and a GI50 (OVCAR-8 ovarian) of 2680 nM. The TGI (OVCAR-8 ovarian) was 8.93 µM, the GI50 (PC-3 prostate) was 2900 nM and the TGI (PC-3 prostate) was 11.5 µM. The GI50 (RPMI-8226 leukemia) was 1920 nM, the TGI (RPMI-8226 leukemia) was 5.91 µM and the GI50 (RXF 393 renal) was 1610 nM. For the same molecule, the TGI (RXF 393 renal) was 3 µM, the GI50 (SF-268 CNS) was 4.76 µM and the TGI (SF-268 CNS) was 19.6 µM. It also gave a GI50 (SF-295 CNS) of 16.3 µM, a TGI (SF-295 CNS) of 31.2 µM and a GI50 (SF-539 CNS) of 3.18 µM. The TGI (SF-539 CNS) was 10.3 µM, the GI50 (SK-MEL-2 melanoma) was 2380 nM and the TGI (SK-MEL-2 melanoma) was 5.73 µM. For the same molecule, the GI50 (SK-MEL-28 melanoma) was 1950 nM, the TGI (SK-MEL-28 melanoma) was 3.66 µM and the GI50 (SK-MEL-5 melanoma) was 2750 nM. For the same molecule, the TGI (SK-MEL-5 melanoma) was 7.84 µM, the GI50 (SK-OV-3 ovarian) was 14.2 µM and the TGI (SK-OV-3 ovarian) was 27.6 µM. It also gave a GI50 (SN12C renal) of 2160 nM, a TGI (SN12C renal) of 5.66 µM and a GI50 (SNB-19 CNS) of 16 µM. It also gave a TGI (SNB-19 CNS) of 45.3 µM, a GI50 (SNB-75 CNS) of 13 µM and a TGI (SNB-75 CNS) of 27.4 µM. The GI50 (SR leukemia) was 1560 nM, the TGI (SR leukemia) was 5 µM and the GI50 (SW-620 colon) was 2050 nM. It also gave a TGI (SW-620 colon) of 4.89 µM, a GI50 (T-47D breast) of 1930 nM and a TGI (T-47D breast) of 4.8 µM. For the same molecule, the GI50 (TK-10 renal) was 2010 nM, the TGI (TK-10 renal) was 3.52 µM and the GI50 (U251 CNS) was 6.45 µM. The TGI (U251 CNS) was 24.8 µM, the GI50 (UACC-257 melanoma) was 1650 nM and the TGI (UACC-257 melanoma) was 3.24 µM. It also gave a GI50 (UACC-62 melanoma) of 4.28 µM, a TGI (UACC-62 melanoma) of 18.4 µM and a GI50 (UO-31 renal) of 1540 nM. The TGI (UO-31 renal) was 2950 nM.
